The text below walks through data of patent US10208043B2, “Methods for inhibiting fascin” (Novita Pharmaceuticals, Inc., priority 2012, dated 2019).

One assay deals with 4T1 breast tumor cells. Description: Boyden-chamber cell migration assay, 4T1. The assay is classed as cell-based. The protocol: Since fascin is critical for tumor cell migration, inhibitors of fascin should block tumor cell migration. Representative compounds were selected from the above-identified fascin inhibitors to test their abilities on inhibition of tumor cell migration (See Table 2). […] The cell lines used are listed below.
Exemplifying procedure: MDA-MB-231 cells (5×10^4) or 4T1 Cells (1×10^5) suspended in 100 μL starvation medium were added to the upper chamber of an insert (6.5 mm diameter, 8 μm pore size; Becton Dickson), and the insert was placed in a 24-well plate containing 700 μL starvation medium with or without 10% FBS. […] Migration assays were performed for 6 h and cells were fixed with 3.7% formaldehyde. Cells were stained with crystal violet staining solution, and cells on the upper side of the insert were removed with a cotton swab. Three randomly selected fields (×10 objectives) on the lower side of the insert were photographed, and the migrated cells were counted. Migration was expressed as average number of migrated cells in a field.

The target in the next assay is fascin (Homo sapiens (Human), UniProt Q16658). Description: High throughput fascin inhibition assay (actin bundling, F-actin imaging). The assay is classed as biochemical. As to the method: A high throughput assay was developed to screen for fascin specific inhibitors. Purified polymerized F-actin with or without fascin were mixed and incubated to allow actin bundle formation. F-actin polymers were then bound to the poly-D-lysine coated plates. […] Four images were taken from each well and the average fiber length was analyzed for each tested compound.
Recombinant human fascin 1 was expressed as a GST fusion protein in BL21 Escherichia coli. One liter of 2YT medium with ampicillin was inoculated overnight with 3 mL of BL21/DE3 culture transformed with pGEX4T-fascin 1 plasmid and grown at 37° C. until attenuance at 600 nm (D600) reached about 0.8. The culture was then transferred to 18° C. and induced by the addition of 0.1 mM isopropyl β-d-thiogalactoside (IPTG) for 12 h. Bacteria were harvested by centrifugation at 5,000 r.p.m. for 10 min. The pellets were suspended in 30 mL of PBS supplemented with 0.2 mM PMSF, 1 mM DTT, 1% (v/v) Triton X-100 and 1 mM EDTA. After sonication, the suspension was centrifuged at 15,000 r.p.m. for 30 min to remove the cell debris. The supernatant was then incubated for 2 h with 4 mL of glutathione beads (Sigma) at 4° C. After extensive washing with PBS, the beads were resuspended in 10 mL of thrombin cleavage buffer (20 mM Tris-HCl pH 8.0, 150 mM NaCl, 2 mM CaCl2, 1 mM DTT). Fascin was released from the beads by incubation overnight with 40-100 U of thrombin at 4° C. After centrifugation, 0.2 mM PMSF was added to the supernatant to inactivate the remnant thrombin activity. The fascin protein was further concentrated with a Centricon® (Boca Raton, Fla.) filter to about 50 mg/mL.
About 150,000 compounds were screened. […] Purified fascin protein (15 μL of 0.5 μM) in buffer (100 mM KCl, 20 mM Tris/HCl, pH 7.5, 2 mM MgCl2) was added into each well of a clear 384-well flat-bottom plate (Corning) using Thermo Multidrop Combi (Fisher). Compound ([…]) solutions (5 mM stock) from various chemical libraries were pin transferred from stock 384-well plates into the 384-well assay plates and incubated for 30 min. Then 15 μL of 0.5 μM polymerized actin (in 100 mM KCl, 20 mM Tris/HCl, pH 7.5, 2 mM MgCl2, 1 mM DTT, 1 mM ATP) (Cytoskeleton Inc.) was added, resulting in 30 μM final concentration for chemical compounds. […] Mixed solution (25 μL) was then transferred to one well in a black 384-well plate coated with poly-D-lysine, and stained actin bundles or F-actin would stick onto the poly-D-lysine plates. After the plates were thoroughly washed with 1×PBS for 3 times, the plate was imaged using an ImageXpress Micro High Content Screening System (Molecular devices). The images were processed and analyzed using MetaMorph software. The raw image data for each well was background-corrected by subtraction of the median intensities across all wells on the plate. The background-corrected data was used to compute the bundle length for each well. The negative control wells were employed for quality control: multiple DMSO-only control wells (16 wells/plate) were present on each assay plate.

With `CC(=O)Nc1nc2ccc(Cl)cc2s1` [Compound 19, N-(6-chlorobenzo[d]thiazol-2-yl)acetamide], the half-inhibitory concentration (IC50) was about 25 µM in the assay with 4T1 breast tumor cells and about 2 µM at fascin.

As for `Cc1ccc(S(=O)(=O)Nc2cc(Sc3nc[nH]n3)c(O)c3ccccc23)c(C)c1` [Compound 15, N-(3-(1H-1,2,4-triazol-3-ylthio)-4-hydroxynaphthalen-1-yl)-2,4-dimethylbenzenesulfonamide], the results for the IC50 with 4T1 breast tumor cells and on fascin were over 30 µM and 2.7 µM, respectively.

With `Cc1ccc(C)c(S(=O)(=O)Nc2cc(Sc3nc[nH]n3)c(O)c3ccccc23)c1` [Compound 8, N-(3-(1H-1,2,4-triazol-3-ylthio)-4-hydroxynaphthalen-1-yl)-2,5-dimethylbenzenesulfonamide], the IC50 in the assay on 4T1 breast tumor cells turned out to be 20 µM; on fascin it was 0.683 µM.

For the compound `c1ccc(Nc2nc(-c3ccccc3)[n+](-c3ccccc3)s2)cc1` [Compound 7, N-phenyl-2,3-diphenyl-1,2,4-thiadiazolium-5-amine], the half-inhibitory concentration (IC50) was over 50 µM with 4T1 breast tumor cells and 2 µM against fascin.

The compound `O=C(Cn1cnc2c(cnn2C2CCS(=O)(=O)C2)c1=O)NCc1ccc(F)cc1` [Compound 24, N-(4-fluorobenzyl)-2-(4-oxo-1-(S,S-dioxo-tetrahydrothiophen-3-yl)-1H-pyrazolo[3,4-d]pyrimidin-5(4H)-yl)acetamide] had an IC50 against fascin of 4.3 µM.

With `O=S(=O)(Nc1nc2ccc(Oc3ccccc3)cc2s1)c1cccc(Cl)c1` [Compound 16, 3-chloro-N-(6-phenoxybenzo[d]thiazol-2-yl)benzenesulfonamide], the concentration for half-maximal inhibition (IC50) is about 7 µM in the assay with 4T1 breast tumor cells and about 4 µM against fascin.

For the compound `O=c1c2cnn(C3CCS(=O)(=O)C3)c2ncn1Cc1ccc(Cl)c(Cl)c1` [Compound 1, 5-(3,4-dichlorobenzyl)-1-(S,S,-dioxo-tetrahydrothiophen-3-yl)-1H-pyrazolo[3,4-d]pyrimidin-4(5H)-one], the IC50 at fascin is 0.734 µM.

The compound `O=C(Cn1cnc2c(cnn2C2CCS(=O)(=O)C2)c1=O)Nc1ccc(Cl)cc1` [Compound 26, N-(4-chlorophenyl)-2-(4-oxo-1-(S,S-dioxo-tetrahydrothiophen-3-yl)-1H-pyrazolo[3,4-d]pyrimidin-5(4H)-yl)acetamide] came in with an IC50 at fascin of 4.3 µM.

On to `CCc1ccc(S(=O)(=O)Nc2cc(Sc3nc[nH]n3)c(O)c3ccccc23)cc1` [Compound 11, N-(3-(1H-1,2,4-triazol-3-ylthio)-4-hydroxynaphthalen-1-yl)-4-ethylbenzenesulfonamide], for which the IC50 in the assay with 4T1 breast tumor cells was about 20 µM; at fascin, 0.89 µM.

`CNc1nc(-c2ccccc2)[n+](-c2ccccc2)s1` [Compound 5, N-methyl-2,3-diphenyl-1,2,4-thiadiazolium-5-amine]: the IC50 with 4T1 breast tumor cells came out at 30 µM; against fascin it was 0.5 µM.

The compound `O=c1c2cnn(CCO)c2ncn1Cc1cccc(Cl)c1` [Compound 21, 5-(3-chlorobenzyl)-1-(2-hydroxyethyl)-1H-pyrazolo[3,4-d]pyrimidin-4(5H)-one] yielded an IC50 against fascin of 1.2 µM.

At fascin, `O=C(Cn1cnc2c(cnn2C2CCS(=O)(=O)C2)c1=O)Nc1cccc(C(F)(F)F)c1` [Compound 23, 2-(4-oxo-1-(S,S,-dioxo-tetrahydrothiophen-3-yl)-1H-pyrazolo[3,4-d]pyrimidin-5(4H)-yl)-N-(3-(trifluoromethyl)phenyl)acetamide] returned a 50% inhibitory concentration (IC50) of 3.4 µM.

For the compound `O=C1C(Sc2nc[nH]n2)=C/C(=N/S(=O)(=O)c2ccccc2)c2ccccc21` [Compound 13, (Z)-N-(3-(1H-1,2,4-triazol-3-ylthio)-4-oxonaphthalen-1(4H)-ylidene)benzenesulfonamide], the values for the IC50 in the assay with 4T1 breast tumor cells and against fascin were over 30 µM and 2 µM, respectively.

Consider `O=[N+]([O-])c1cccc(S(=O)(=O)Nc2nc3ccc(F)cc3s2)c1` [Compound 17, N-(6-fluorobenzo[d]thiazol-2-yl)-3-nitrobenzenesulfonamide], for which the results for the IC50 in the assay with 4T1 breast tumor cells and on fascin were about 60 µM and about 4 µM, respectively.

Regarding `c1ccc(CNc2nc(-c3ccccc3)[n+](-c3ccccc3)s2)cc1` [Compound 6, N-benzyl-2,3-diphenyl-1,2,4-thiadiazolium-5-amine], at fascin, the IC50 came to 5 µM.

Regarding `O=C(Cn1cnc2c(cnn2C2CCS(=O)(=O)C2)c1=O)c1ccc2c(c1)OCO2` [Compound 29, 5-(2-(benzo[d][1,3]dioxol-5-yl)-2-oxoethyl)-1-(S,S-dioxo-tetrahydrothiophen-3-yl)-1H-pyrazolo[3,4-d]pyrimidin-4(5H)-one], it took 3.7 µM to reach half-maximal inhibition on fascin (IC50).

Consider `Cc1cc(C)c(S(=O)(=O)Nc2cc(Sc3nc[nH]n3)c(O)c3ccccc23)cc1C` [Compound 12, N-(3-(1H-1,2,4-triazol-3-ylthio)-4-hydroxynaphthalen-1-yl)-2,4,5-trimethylbenzenesulfonamide], for which the half-maximal inhibitory concentration (IC50) with 4T1 breast tumor cells was 16 µM; at fascin, 0.539 µM.

`O=S(=O)(Nc1cc(Sc2nc[nH]n2)c(O)c2ccccc12)c1ccc(Br)cc1` [Compound 14, N-(3-(1H-1,2,4-triazol-3-ylthio)-4-hydroxynaphthalen-1-yl)-4-bromobenzenesulfonamide]: the values for the 50% inhibitory concentration (IC50) in the assay with 4T1 breast tumor cells and against fascin were about 25 µM and 2.62 µM, respectively.

`Cc1ccc(-n2ncc3c(=O)n(Cc4ccc(Cl)c(Cl)c4)cnc32)c(C)c1` [Compound 32, 5-(3,4-dichlorobenzyl)-1-(2,4-dimethylphenyl)-1H-pyrazolo[3,4-d]pyrimidin-4(5H)-one] came in with an IC50 on fascin of 2.1 µM.

In the case of `Cc1ccc(C(=O)Cn2cnc3c(cnn3C3CCS(=O)(=O)C3)c2=O)c(C)c1` [Compound 28, 5-(2-(2,4-dimethylphenyl)-2-oxoethyl)-1-(S,S-dioxo-tetrahydrothiophen-3-yl)-1H-pyrazolo[3,4-d]pyrimidin-4(5H)-one], it took 4.7 µM to reach half-maximal inhibition on fascin (IC50).

In the case of `O=C(Cn1cnc2c(cnn2C2CCS(=O)(=O)C2)c1=O)NCc1ccc2c(c1)OCO2` [Compound 25, N-(benzo[d][1,3]dioxol-5-ylmethyl)-2-(4-oxo-1-(S,S-dioxo-tetrahydrothiophen-3-yl)-1H-pyrazolo[3,4-d]pyrimidin-5(4H)-yl)acetamide], at fascin, half-maximal inhibition (IC50) was put at 4.6 µM.

Turning to `CCOc1ccc(S(=O)(=O)Nc2cc(Sc3nc[nH]n3)c(O)c3ccccc23)cc1` [Compound 9, N-(3-(1H-1,2,4-triazol-3-ylthio)-4-hydroxynaphthalen-1-yl)-4-ethoxybenzenesulfonamide], the IC50 in the assay with 4T1 breast tumor cells is over 20 µM; against fascin, 1.47 µM.

`O=C(Nc1nn(Cc2ccc(C(F)(F)F)cc2)c2ccccc12)c1ccco1` [Compound 2, N-(1-(4-(trifluoromethyl)benzyl)-1H-indazol-3-yl)furan-2-carboxamide] yielded an IC50 against fascin of 2 µM.

As to `Cc1ccccc1-n1ncc2c(=O)n(Cc3ccc(Cl)c(Cl)c3)cnc21` [Compound 30, 5-(3,4-dichlorobenzyl)-1-o-tolyl-1H-pyrazolo[3,4-d]pyrimidin-4(5H)-one], the half-maximal inhibitory concentration (IC50) at fascin was determined as 2 µM.

For the compound `O=S(=O)(Nc1nc2ccc(F)cc2s1)c1cccc(Cl)c1Cl` [Compound 18, 2,3-dichloro-N-(6-fluorobenzo[d]thiazol-2-yl)benzenesulfonamide], the IC50 is about 3 µM with 4T1 breast tumor cells and about 13 µM on fascin.

In turn, `O=C(Cn1cnc2c(cnn2C2CCS(=O)(=O)C2)c1=O)c1ccc2c(c1)OCCO2` [Compound 27, 5-(2-(2,3-dihydrobenzo[b][1,4]dioxin-6-yl)-2-oxoethyl)-1-(S,S-dioxo-tetrahydrothiophen-3-yl)-1H-pyrazolo[3,4-d]pyrimidin-4(5H)-one] came in with a concentration for half-maximal inhibition (IC50) against fascin of about 10 µM.

The compound `Cc1cccc(-n2ncc3c(=O)n(Cc4ccc(Cl)c(Cl)c4)cnc32)c1C` [Compound 31, 5-(3,4-dichlorobenzyl)-1-(2,3-dimethylphenyl)-1H-pyrazolo[3,4-d]pyrimidin-4(5H)-one] had a half-maximal inhibitory concentration (IC50) against fascin of 2.3 µM.

By IC50 is commonly meant the point on the concentration scale where inhibition reaches its midpoint. The low end stands for inhibition by little substance, the high end for a need for much substance.
